From patent US4084006A, “Method of using dialkylphenols an antiviral agents” (priority 1977, dated 1978)

Columns and labels:
[1] = system: chronic respiratory disease (CRD); test: Treatment of chronic respiratory disease (CRD) in spontaneously hypertensive (SH) rats; assay type: in vivo, rat (SH); for Dead animals: tested at 0.001 ppm; for Ill animals: tested at 0.001 ppm; for Total number of rats: tested at 0.001 ppm; for Well animals: tested at 0.001 ppm; for animals showing a trace of secretions around their necks: tested at 0.001 ppm; for rats alive in the treated group: tested at 0.001 ppm
Procedure: Treatment of Chronic Respiratory Disease (CRD) in laboratory rats: chronic respiratory disease symptoms include coughing and wheezing accompanied by nasal secretions.
One-half of a colony of spontaneously hypertensive (SH) rats was treated with 2,4-dimethylphenol in their drinking water at a concentration of one part per billion. The other half of this colony was given only tap water, and both groups observed for 76 days. The second experiment was with a highly inbred strain (GM) of rats that were about to expire, because of chronic respiratory infection. […] Both groups, the SH rats and the GM rats, were not breeding because of their infections and were in seriously poor health.
They were only 42 SH rats left in the colony. They were divided into two groups of 21 rats each. Approximately one-half the sick rats were selected for each group. […] This was best observed as a brown secretion from the nose and wiped around the neck by the rat's front paws. The experimental group was treated continuously with one part per billion (1 PPB) of 2,4-dimethylphenol in their drinking fluid. Certain of these rats were so ill that they were near death when the experiment was started and they died in spite of treatment.

[2] = system: Mycoplasma pulmonis (ATCC 19612); test: Serum antibodies for Mycoplasma in rats; assay type: in vivo, Mycoplasma pulmonis (host: rat); conditions: one part per million; two of 19 infected rats in all groups, the other a control
Excerpt: Attempts were made to test the effect of infecting rats with Mycoplasma pulmonis (ATCC 19612) so that they could transmit the disease to their cage mates and, also allowed them to breed. This was also done to test if the mothers would pass the infection on to their litters. These rats were purchased from a laboratory in Indianapolis, Indiana and they were divided into 6 groups with male animals in each group. In the 5 experimental groups, a total of 15 female rats out of 30, and in the control group 4 female rats out of 8 were infected intranasally with Mycoplasma pulmonis (ATCC 19612). There were two male rats per experimental group and 3 for the controls totaling 13 male rats, and none of these were infected with M. pulmonis.
The experimental groups (8 rats each) and control group were treated as follows:
All rats were fed ad libitum rat chow, and their cages were cleaned 5-6 times weekly. For the 5 experimental groups, the 2,4 DMP was dissolved in distilled water used for their drinking fluid while the control only received distilled water. There were times when the rats spilled excessive amounts of their drinking water and this caused a certain amount of the phenol to be evaporated from these cages, particularly those groups receiving the higher concentrations of the phenol. […]

[3] = day 14, 1 PPB in drinking water, SH rats
[4] = day 22, 1 PPB in drinking water, SH rats
[5] = day 29, 1 PPB in drinking water, SH rats
[6] = day 36, 1 PPB in drinking water, SH rats
[7] = day 43, 1 PPB in drinking water, SH rats

For `Cc1ccc(O)c(C)c1` [2,4-dimethylphenol], the Dead animals [1, 3] was 1, the Ill animals [1, 3] was 8 and the Well animals [1, 3] was 12. The “Total number of rats” value ([1]; day 14, 1 PPB in drinking water, SH rats, 21 at start) was 21, the Dead animals [1, 4] was 1 and the Ill animals [1, 4] was 7. The Well animals [1, 4] was 12, the “Total number of rats” value ([1]; day 22, 1 PPB in drinking water, SH rats, 21 at start) was 20 and the Dead animals [1, 5] was 2. The Ill animals [1, 5] was 4, the Well animals [1, 5] was 13 and the “Total number of rats” value ([1]; day 29, 1 PPB in drinking water, SH rats, 21 at start) was 19. The Ill animals [1, 6] was 5, the Well animals [1, 6] was 12 and the “Total number of rats” value ([1]; day 36, 1 PPB in drinking water, SH rats, 21 at start) was 17. For the same compound, the Ill animals [1, 7] was 5, the Well animals [1, 7] was 12 and the “Total number of rats” value ([1]; day 43, 1 PPB in drinking water, SH rats, 21 at start) was 17. The Well animals ([1]; day 76, 1 PPB in drinking water, SH rats) was 12, the “Total number of rats” value ([1]; day 76, 1 PPB in drinking water, SH rats, 21 at start) was 17 and the Ill animals ([1]; day 76, 1 PPB in drinking water, SH rats, minimal infection) was 5. The “infection in the five ill rats” value ([1]; day 76, visual observation, 1 PPB, SH rats) was “minimal infection from visual observation”, the “rats alive in the treated group” value ([1]; end of 76 days, 1 PPB in drinking water, SH rats, 21 at start) was 17 and the “animals showing a trace of secretions around their necks” value ([1]; end of 76 days, of 17 rats alive, 1 PPB, SH rats) was 5. For the same compound, the “breeding and colony health” value ([1]; more than 2 years, 1 PPB in drinking fluid, combined SH groups) was “These animals began to breed, and the colony is now healthy” and the “M. pulmonis infected rats with detectable Mycoplasma antibody titers” value [2] was “One”.
